From patent publication US20240101958A1, “NOVEL HUMAN ERYTHROID PROGENITOR CELL LINE HIGHLY […] B19 INFECTION AND USES THEREOF” (priority 2020, published 2024) come the findings set out here.

For one assay, the system named is B19. The assay is described as follows: Production of B19 genome copies equivalent per mL of cell culture, qPCR. Particulars: UT7/Epo-E2 cell line after chloroquine treatment, 96 h post infection. It counts as cell-based, Human Parvovirus B19. The protocol:
Cells (day 8 CD36^+EPC, UT7/Epo-S1, UT7/Epo-STI and UT7/Epo-E2) were inoculated with B19. 24 h after inoculation (24 hpi), cells were washed. 3 days later (96 hpi), supernatant was collected, DNA was isolated and B19 DNA was quantified by qPCR according to a B19 DNA standard (GenBank accession no. AY386330). Results are means±SD of 3 independent experiments. For CD36+ EPC, results are means±SD of three day-8 erythroid culture from CD34+ hematopoietic stem cells isolated from 3 different umbilical cord blood.
B19 genome production (FIG. 12) and transcription (FIG. 13) was evaluated at 96h post infection in CD36+EPC cells (day 8) and UT7 cell lines with or without addition of chloroquine (FIG. 13A and B). 96 h post infection, DNA was extracted from an aliquot of 1 mL of cell culture and RNA from cell pellets. B19 genome production was evaluated by qPCR and genome equivalent (GEq)/mL was calculated according to a B19 genome calibration curve. Transcription was analysed by RT-qPCR as previously described. […] UT7/Epo-E2 cell line presents the highest quantity of B19 genome equivalent produced, with at least 7.65×10^7 GEq/mL after chloroquine treatment. […]
On the technique in general: Quantitative PCR measures a nucleic acid by following its amplification.

For the next assay, the system named is B19V. Nature of the assay: B19V infection of hematopoietic cell lines, VP2 mRNA by RT-qPCR normalized to beta-actin. The note with it: for decrease of B19V infection by a factor: UT7/Epo-STI cells treated two days before B19V infection (JQ1 0.5 μM, TGF-β 2 ng/mL), 72 h post-inoculation.

Experimental for B19V: Three distinct UT-7/Epo cell lines were used: 1) UT-7/Epo-S1, a subclone of UT-7/Epo (16), was obtained from Dr Kazuo Sugamura (Tohoku University Graduate School of Medicine, Japan). 2) UT-7/Epo and UT7/Epo-Cl3, a subclone isolated from UT-7/Epo3) UT7/Epo-STI cells were derived from UT-7/GM cell line and were maintained at low passage, with stringency for erythroid features. UT-7 cells were maintained at 37° C., under an atmosphere containing 5% CO2, in alpha minimum essential medium (αMEM) supplemented with 10% fetal calf serum (FCS), 2 mM L-glutamine (Hyclone), 100 U/mL penicillin, 100 μg/mL streptomycin and 2 U/mL recombinant human Erythropoietin (rh-Epo, Euromedex, RC213-15). Where specified, 0.5 μM JQ1 (Sigma-Aldrich, France) or 2 ng/mL TGF-β (Peprotech, France) was added to the culture medium for two days before B19V infection. TF1 (12) and TF1-ER erythroleukemia cells were maintained in Roswell Park Memorial Institute (RPM!) 1640 medium supplemented with 10% FCS, 2 mM L-glutamine (Hyclone), 100 U/mL penicillin, 100 μg/mL streptomycin and 2 U/mL rh-Epo or 5 ng/mL human granulocyte macrophage colony-stimulating factor (GM-CSF, Peprotech).
Plasma samples containing high titers of infectious B19V from asymptomatic blood donors were provided by the Etablissement Français du Sang (EFS). Plasma samples were determined to be negative for both B19V IgG and IgM, with a viral titer of 10^11 B19V DNA genome equivalent (ge)/mL. Briefly, cells were maintained in exponential growth condition by dilution to 0.3×10^6 cells/mL the day before infection. On the day of infection, cells were washed and diluted in FCS-free medium without Epo, at a density of 10·10^6 cells/mL. B19V inoculation was carried out in a 96-well plate, with 10 μL of cell suspension (10^5 cells) and 50 μL of a 100-fold dilution of B19V plasma (10^9 ge/mL), corresponding to a mean of 500 ge/cell. The cells were then incubated at 4° C. for 2 h, and then at 37° C., for 1 h, under an atmosphere containing 5% CO2. We added 140 μL of complete medium and maintained the cells in culture until 72 h. Where specified, we added chloroquine (CQ) to the complete medium, at a final concentration of 25 μM. Cell viability was assessed by trypan blue exclusion test (0.4% in PBS, Thermo Fisher Scientific), by counting blue and total cells under a microscope, with a hemocytometer. After correction for the dilution factor, viability was calculated as follows: % viable cells=[1−(number of blue cells/number of total cell)]×100. At 24, 48 or 72 h post infection (hpi), cells were centrifuged (8 mins at 300×g), supernatants were discarded and cell pellets were frozen at −80° C. until analysis.
Total RNA was extracted from cell pellets with the RNeasy 96 QIAcubeHT kit and a QIAcubeHT machine, according to the manufacturer's instructions. The extraction step included DNase treatment for 15 minutes, to decrease the risk of genomic DNA amplification during PCR. Real-time reverse transcription-quantitative PCR (RT-qPCR) was performed with the Taqman Fast Virus one-step PCR kit (Applied Biosystems). […] For control and normalization with respect to the number of cells, we used a duplex strategy. […] Reactions were performed on 5 μL of extracted RNA with the QuantStudio 3 PCR system and. The reaction began with reverse transcription at 48° C. for 15 mins, followed by inactivation of the reverse transcriptase and activation of the polymerase by heating at 95° C. for 10 mins, followed by 40 cycles of 15s at 95° C. and 30 s at 60° C. […]

Regarding `CCN(CC)CCCC(C)Nc1ccnc2cc(Cl)ccc12` (racemic) [Chloroquine, (RS)-N-(7-chloroquinolin-4-yl)-N,N-diéthyl-pentane-1,4-diamine], the “quantity of B19 genome equivalent produced” value in the assay on B19 is given as “at least 7.65×10^7 GEq/mL”. Moreover, the VP2 expression result in the assay on B19V (TF1 and TF1-ER cells, under GM-CSF or Epo, with or without chloroquine treatment) was “undetectable”. Further, the “enhancement of UT7/Epo-S1 sensitivity to B19V (relative B19 mRNA expression)” value in the assay with B19V (UT7/Epo-S1 cells, chloroquine 25 μM, 72 h post-infection) was 5 fold. In the assay with B19V (UT7/Epo-STI cells + chloroquine 25 μM, 72 h post-infection), the “relative B19 mRNA level (VP2), UT7/Epo-S1 without chloroquine set to 1” value is 25.8+4.9.

Take `Cc1sc2c(c1C)C(c1ccc(Cl)cc1)=N[C@@H](CC(=O)OC(C)(C)C)c1nnc(C)n1-2` [JQ1]: the “decrease of B19V infection by a factor” value in the assay on B19V is on record as “about 10”.

In the case of “TGF-B: hormonal induction of erythroid differentiation (Peprotech)”, the “decrease of B19V infection by a factor” value in the assay with B19V is “about 10”.
